# Source: PubChem BioAssay AID330 (DTP/NCI, 2004)
# Where “and” joins values, the source holds several entries; their conditions need not be identical. Identical values can stand only once. Toxic doses and inconclusive results are not listed.
# System: P388 leukemia ip, CD2F1 mice, survival T/C
# Experiment: NCI In Vivo Anticancer Drug Screen. Data for tumor model P388 Leukemia (intraperitoneal) in CD2F1 (CDF1) mice
# Conditions: endpoint: median survival time, higher = longer survival
# Procedure, shortened: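 Mice carrying the transplanted tumor received test compound or vehicle. Survival was recorded in each group, and the value is the treated-group measurement divided by that of the vehicle-treated control group.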
# [1] = dose: 50.0 mg/kg/injection, schedule: Q01DX009 (ip), vehicle: saline with Tween-80
# [2] = dose: 100.0 mg/kg/injection, schedule: Q01DX009 (ip), vehicle: saline with Tween-80
# [3] = dose: 50.0 mg/kg/injection, schedule: Q01DX005 (ip), vehicle: Klucel (hydroxypropylcellulose) (HPC)
# [4] = dose: 100.0 mg/kg/injection, schedule: Q01DX005 (ip), vehicle: Klucel (hydroxypropylcellulose) (HPC)
# [5] = dose: 200.0 mg/kg/injection, schedule: Q01DX005 (ip), vehicle: Klucel (hydroxypropylcellulose) (HPC)
# [6] = dose: 100.0 mg/kg/injection, schedule: Q04DX003 (ip), vehicle: saline with Tween-80
# [7] = dose: 200.0 mg/kg/injection, schedule: Q04DX003 (ip), vehicle: saline with Tween-80
# [8] = dose: 200.0 mg/kg/injection, schedule: Q01DX009 (ip), vehicle: saline with Tween-80
# [9] = dose: 400.0 mg/kg/injection, schedule: Q01DX009 (ip), vehicle: saline with Tween-80
# [10] = dose: 50.0 mg/kg/injection, schedule: Q01DX005 (ip), vehicle: saline
# [11] = dose: 100.0 mg/kg/injection, schedule: Q01DX005 (ip), vehicle: saline
# [12] = dose: 50.0 mg/kg/injection, schedule: Q01DX005 (ip), vehicle: saline with Tween-80
# [13] = dose: 100.0 mg/kg/injection, schedule: Q01DX005 (ip), vehicle: saline with Tween-80
# [14] = dose: 200.0 mg/kg/injection, schedule: Q01DX005 (ip), vehicle: saline with Tween-80
compound,measurement,setting,value
CC(C)CC(NC(=O)C(C)N)C(=O)NC(C)C(=O)NC1C(O)OC(CO)C(O)C1O (stereo not drawn),T/C,"dose: 100.0 mg/kg/injection, schedule: Q01DX001 (ip), vehicle: saline with Tween-80",100 % of control
same,T/C,"dose: 200.0 mg/kg/injection, schedule: Q01DX001 (ip), vehicle: saline with Tween-80",97 % of control
same,T/C,"dose: 400.0 mg/kg/injection, schedule: Q01DX001 (ip), vehicle: saline with Tween-80",91 % of control
Nc1nc(N)c(N=O)c(Nc2cccc(Br)c2)n1,T/C,"dose: 12.5 mg/kg/injection, schedule: Q01DX009 (ip), vehicle: saline with Tween-80",99 % of control
same,T/C,"dose: 25.0 mg/kg/injection, schedule: Q01DX009 (ip), vehicle: saline with Tween-80",99 % of control
same,T/C,[1],90 % of control
same,T/C,[2],91 % of control
C=C(C)C1CC=C(C)C(CCC2C(=C)CCC3C(C)(C)C(OC4OC(CO)C(O)C(O)C4NC(C)=O)CCC23C)C1(C)CCC(=O)O (stereo not drawn),T/C,"dose: 35.75 mg/kg/injection, schedule: Q01DX005 (ip), vehicle: Klucel (hydroxypropylcellulose) (HPC)",91 % of control
same,T/C,"dose: 71.5 mg/kg/injection, schedule: Q01DX005 (ip), vehicle: Klucel (hydroxypropylcellulose) (HPC)",87 % of control
same,T/C,"dose: 143.0 mg/kg/injection, schedule: Q01DX005 (ip), vehicle: Klucel (hydroxypropylcellulose) (HPC)",97 % of control
Cc1ccc2c(c1)nc(Cl)n2Cc1ccccc1,T/C,[3],100 % of control
same,T/C,[4],102 % of control
same,T/C,[5],102 % of control
CC(=O)Nc1nc(CC(N)C(=O)O)c[se]1 (stereo not drawn),T/C,[3],97 % of control
same,T/C,[4],97 % of control
same,T/C,[5],97 % of control
Cc1cc2ncnn2cn1,T/C,[6],99 % of control
same,T/C,[7],99 % of control
same,T/C,"dose: 400.0 mg/kg/injection, schedule: Q04DX003 (ip), vehicle: saline with Tween-80",93 % of control
CC(C)(Cl)C1OC(C(C)(C)Cl)OC(C(C)(C)Cl)O1 (stereo not drawn),T/C,[2],91 % of control
same,T/C,[8],94 % of control
same,T/C,[9],103 % of control
CCOC(=O)/C=C/C(=O)NNS(=O)(=O)CCC(N)C(=O)O (stereo not drawn),T/C,"dose: 12.5 mg/kg/injection, schedule: Q01DX009 (ip), vehicle: water",101 % of control
same,T/C,"dose: 25.0 mg/kg/injection, schedule: Q01DX009 (ip), vehicle: water",95 % of control
same,T/C,"dose: 50.0 mg/kg/injection, schedule: Q01DX009 (ip), vehicle: water",100 % of control
same,T/C,"dose: 100.0 mg/kg/injection, schedule: Q01DX009 (ip), vehicle: water",116 % of control
CC(C)N1COC(c2ccccc2)C1 (stereo not drawn),T/C,"dose: 12.5 mg/kg/injection, schedule: Q01DX005 (ip), vehicle: saline",106 % of control and 88 % of control
same,T/C,"dose: 25.0 mg/kg/injection, schedule: Q01DX005 (ip), vehicle: saline",123 % of control and 96 % of control
same,T/C,[10],100 % of control and 110 % of control and 117 % of control
same,T/C,[11],124 % of control
Cc1ccc(C(SCC(N)C(=O)O)(c2ccccc2)c2ccc(C)cc2)cc1 (stereo not drawn),T/C,"dose: 50.0 mg/kg/injection, schedule: Q04DX003 (ip), vehicle: saline with Tween-80",186 % of control
same,T/C,[6],200 % of control
same,T/C,"dose: 132.0 mg/kg/injection, schedule: Q04DX003 (ip), vehicle: saline with Tween-80",172 % of control
same,T/C,[7],177 % of control and 200 % of control
same,T/C,"dose: 300.0 mg/kg/injection, schedule: Q04DX003 (ip), vehicle: saline with Tween-80",263 % of control
C[C@]12CCC(=O)C[C@H]1CC[C@@H]1[C@@H]2CC[C@@]2(C)[C@H]1CC[C@]2(C)O,T/C,[2],90 % of control
same,T/C,[8],95 % of control
same,T/C,[9],100 % of control
COC(=O)C1=CC[C@@H]2C(C(=O)O)=CO[C@@H](OC3OC(CO)C(O)C(O)C3O)[C@H]12 (stereo partly drawn),T/C,"dose: 2.8 mg/kg/injection, schedule: Q01DX005 (ip), vehicle: saline + alcohol",101 % of control
same,T/C,"dose: 5.5 mg/kg/injection, schedule: Q01DX005 (ip), vehicle: saline + alcohol",99 % of control
same,T/C,"dose: 11.0 mg/kg/injection, schedule: Q01DX005 (ip), vehicle: saline + alcohol",108 % of control
same,T/C,"dose: 22.0 mg/kg/injection, schedule: Q01DX005 (ip), vehicle: saline + alcohol",100 % of control
O=C1OC(=O)C2C3C=CC(C3)C12 (stereo not drawn),T/C,"dose: 12.5 mg/kg/injection, schedule: Q01DX009 (ip), vehicle: saline sonified",100 % of control
same,T/C,"dose: 25.0 mg/kg/injection, schedule: Q01DX009 (ip), vehicle: saline sonified",100 % of control
same,T/C,"dose: 50.0 mg/kg/injection, schedule: Q01DX009 (ip), vehicle: saline sonified",100 % of control
CC(=O)OCC(=O)[C@@]1(O)CC[C@H]2[C@@H]3C[C@H](F)C4=CC(=O)CC[C@]4(C)[C@H]3[C@@H](O)C[C@@]21C,T/C,"dose: 100.0 mg/kg/injection, schedule: Q04DX003 (ip), vehicle: saline",104 % of control
same,T/C,"dose: 200.0 mg/kg/injection, schedule: Q04DX003 (ip), vehicle: saline",100 % of control
same,T/C,"dose: 400.0 mg/kg/injection, schedule: Q04DX003 (ip), vehicle: saline",95 % of control
CC1(C)COC(=O)C(C(=O)O)=C1C(=O)O,T/C,[1],90 % of control
same,T/C,[2],87 % of control
same,T/C,[8],90 % of control
O=C1CCCCCCCC(=O)Nc2ccc3nc4ccccc4c(c3c2)SCCCCCCCCCCCCSc2c3ccccc3nc3ccc(cc23)N1,T/C,[12],105 % of control
same,T/C,[13],107 % of control
same,T/C,[14],104 % of control
O=C(Nc1ccc(O)c2c1C(=O)c1ccccc1C2=O)Oc1ccccc1,T/C,[3],101 % of control
same,T/C,[4],102 % of control
same,T/C,[5],99 % of control
CCCCn1c(=O)cc(C(=O)O)[nH]c1=O,T/C,[1],104 % of control
same,T/C,[2],100 % of control
same,T/C,[8],94 % of control
C=CCC(C)(C)CC=C1C2CCC1N(C(=O)OC)N2C(=O)OC,T/C,"dose: 25.0 mg/kg/injection, schedule: Q01DX005 (ip), vehicle: saline with Tween-80",107 % of control
same,T/C,[12],99 % of control
same,T/C,[13],112 % of control
CCN(CC)CCNc1ccc(COC(=O)NC)c2oc3ccc(OS(=O)(=O)c4ccc(C)cc4)cc3c(=O)c12,T/C,"dose: 25.0 mg/kg/injection, schedule: Q01DX005 (ip), vehicle: water",89 % of control
same,T/C,"dose: 50.0 mg/kg/injection, schedule: Q01DX005 (ip), vehicle: water",93 % of control
same,T/C,"dose: 100.0 mg/kg/injection, schedule: Q01DX005 (ip), vehicle: water",90 % of control
same,T/C,"dose: 200.0 mg/kg/injection, schedule: Q01DX005 (ip), vehicle: water",93 % of control
O=C(O)c1ccc2c(c1)S(=O)(=O)NC2=O,T/C,"dose: 60.0 mg/kg/injection, schedule: Q01DX005 (ip), vehicle: saline with Tween-80",95 % of control
same,T/C,"dose: 120.0 mg/kg/injection, schedule: Q01DX005 (ip), vehicle: saline with Tween-80",99 % of control
same,T/C,"dose: 240.0 mg/kg/injection, schedule: Q01DX005 (ip), vehicle: saline with Tween-80",101 % of control
O=c1cc[nH]c(=O)n1C1OC(CO)C(O)C1O (stereo not drawn),T/C,[10],108 % of control
same,T/C,[11],99 % of control
same,T/C,"dose: 200.0 mg/kg/injection, schedule: Q01DX005 (ip), vehicle: saline",102 % of control
same,T/C,"dose: 400.0 mg/kg/injection, schedule: Q01DX005 (ip), vehicle: saline",98 % of control
OC(c1ccccc1)C1(c2ccccc2)CCN(Cc2ccccc2)CC1 (stereo not drawn),T/C,[12],100 % of control
same,T/C,[13],100 % of control
same,T/C,[14],96 % of control
CCN(CC)S(=O)(=O)c1ccc(OC)c(N)c1,T/C,[1],90 % of control
same,T/C,[2],95 % of control
same,T/C,[6],90 % of control
same,T/C,[8],90 % of control
same,T/C,[7],90 % of control
OC(CCC1OCCO1)(CCC1OCCO1)c1ccccc1,T/C,"dose: 50.0 mg/kg/injection, schedule: Q01DX009 (ip), vehicle: Klucel (hydroxypropylcellulose) (HPC)",97 % of control
same,T/C,"dose: 100.0 mg/kg/injection, schedule: Q01DX009 (ip), vehicle: Klucel (hydroxypropylcellulose) (HPC)",103 % of control
same,T/C,"dose: 200.0 mg/kg/injection, schedule: Q01DX009 (ip), vehicle: Klucel (hydroxypropylcellulose) (HPC)",93 % of control
O=C1c2ccccc2-c2cn(-c3ccccc3)c3cccc1c23,T/C,[3],103 % of control
same,T/C,[4],100 % of control
O=NN1CCNC1=O,T/C,"dose: 1.5 mg/kg/injection, schedule: Q04DX003 (ip), vehicle: saline",113 % of control
same,T/C,"dose: 6.25 mg/kg/injection, schedule: Q01DX009 (ip), vehicle: saline",168 % of control
same,T/C,"dose: 12.5 mg/kg/injection, schedule: Q01DX009 (ip), vehicle: saline",245 % of control
same,T/C,"dose: 12.5 mg/kg/injection, schedule: Q04DX003 (ip), vehicle: saline",163 % of control
same,T/C,"dose: 16.5 mg/kg/injection, schedule: Q04DX003 (ip), vehicle: saline",187 % of control
same,T/C,"dose: 25.0 mg/kg/injection, schedule: Q04DX003 (ip), vehicle: saline",187 % of control and 213 % of control
